We go through 44 compounds from the Biogen ADME set (Fang et al. 2023).

≈ marks a conversion by molar mass, not a printed value.

Broadly, the aqueous solubility is the dissolved amount per volume that the medium holds. Low values mean a poorly soluble substance, high ones a readily soluble substance.

For the series the following is noted: for aqueous solubility: pH 6.8.

Consider `CS(=O)(=O)CCNC(=O)N1CC2(CCCC2)c2ccccc21`, for which the MDR1-MDCK efflux ratio was found to be 3.67; the intrinsic clearance, human liver microsomes came out at 9.64 mL/min/kg; the intrinsic clearance, rat liver microsomes was 192 mL/min/kg; the aqueous solubility was determined as 47.4 µg/mL (≈ 147 µM).
`CN1C(=O)c2ccc(C(=O)N(CC3CCCCC3)C3CC3)cc2C1=O` yielded an intrinsic clearance, human liver microsomes of 123 mL/min/kg and an intrinsic clearance, rat liver microsomes of 2600 mL/min/kg.
With `Cc1ncc(-c2ccccn2)c(CCNC(=O)C2CCCC2)n1`, the MDR1-MDCK efflux ratio came to 7.73; the intrinsic clearance, human liver microsomes worked out at 7.32 mL/min/kg; the intrinsic clearance, rat liver microsomes was determined as 90.7 mL/min/kg.
Consider `CS(=O)(=O)CCc1nc(C2(c3ccccc3)CC2)nn1-c1ccccc1`, for which the MDR1-MDCK efflux ratio stood at 5.9; the intrinsic clearance, human liver microsomes was determined as 5.64 mL/min/kg; the intrinsic clearance, rat liver microsomes worked out at 131 mL/min/kg; the aqueous solubility worked out at 30.6 µg/mL (≈ 83.3 µM).
In the same order, the values of `O=C(NC1CCN(c2ccc(OC(F)(F)F)cc2)CC1)N1CCC1` are 0.716, at most 4.74 mL/min/kg, 26.4 mL/min/kg and 57 µg/mL (≈ 166 µM).
With `CC(=O)N1CCCN(Cc2c(C)nn(C)c2Cl)CC1`, the MDR1-MDCK efflux ratio came out at 3.19; the intrinsic clearance, human liver microsomes came out at 11.6 mL/min/kg; the intrinsic clearance, rat liver microsomes is 43.7 mL/min/kg; the aqueous solubility is 41.1 µg/mL (≈ 144 µM).
Regarding `Clc1cccc(Cl)c1Cc1n[nH]c(CCCn2cccn2)n1`, the MDR1-MDCK efflux ratio came to 13.3; the intrinsic clearance, human liver microsomes worked out at 99.9 mL/min/kg; the intrinsic clearance, rat liver microsomes was found to be 581 mL/min/kg.
As to `Cc1cccc(N2CCN(C(=O)c3cncnc3C(C)C)CC2)c1`, the MDR1-MDCK efflux ratio was found to be 0.882; the intrinsic clearance, human liver microsomes was found to be 144 mL/min/kg; the intrinsic clearance, rat liver microsomes worked out at 1500 mL/min/kg; the aqueous solubility was found to be 73.9 µg/mL (≈ 228 µM).
`CN(C)C(=O)Cn1cc(C(=O)O)ccc1=O` displayed an intrinsic clearance, human liver microsomes of at most 4.74 mL/min/kg; an intrinsic clearance, rat liver microsomes of at most 10.7 mL/min/kg; an aqueous solubility of 21.1 µg/mL (≈ 93.9 µM).
Regarding `CN(C(=O)C1CCN(c2ncccn2)CC1)C1CCCCCCC1`, the MDR1-MDCK efflux ratio came to 0.85; the intrinsic clearance, human liver microsomes came out at 519 mL/min/kg; the intrinsic clearance, rat liver microsomes came to 3890 mL/min/kg; the aqueous solubility was 49.4 µg/mL (≈ 150 µM).
Consider `COCCNc1ncnc2ccsc12`, for which the MDR1-MDCK efflux ratio was 0.711; the intrinsic clearance, human liver microsomes was at most 4.74 mL/min/kg; the intrinsic clearance, rat liver microsomes is 22.9 mL/min/kg; the aqueous solubility was 40.8 µg/mL (≈ 195 µM).
In the same order, the values of `Cc1nc(O)c2c(n1)CN(Cc1ccccc1)CC2` are 9.79, at most 4.74 mL/min/kg, at most 10.7 mL/min/kg and 42.7 µg/mL (≈ 167 µM).
For `O=C(c1ccc2[nH]ccc2c1)N1CCCC(c2cccc(-c3ccc(F)cc3)n2)C1` (configuration not stated), in that order: 1.6, 72.8 mL/min/kg, 571 mL/min/kg and 2.35 µg/mL (≈ 5.88 µM).
For `CCCS(=O)(=O)N1CCCC(C(=O)N2CCc3ccccc3C2)C1` (configuration not stated), in that order: 1.87, 62 mL/min/kg, 1010 mL/min/kg and 54.8 µg/mL (≈ 156 µM).
Consider `Cc1cc(C(=O)NCC2CCC3(CC2)OCCO3)[nH]n1`, for which the MDR1-MDCK efflux ratio is 4.03; the intrinsic clearance, human liver microsomes was at most 4.74 mL/min/kg; the intrinsic clearance, rat liver microsomes stood at 99.2 mL/min/kg.
Consider `CCOC(=O)N1CCN(C(=O)c2ccc3c(c2)OCO3)CC1`, for which the MDR1-MDCK efflux ratio is 0.82; the intrinsic clearance, human liver microsomes was at most 4.74 mL/min/kg; the intrinsic clearance, rat liver microsomes was found to be 112 mL/min/kg; the aqueous solubility stood at 53 µg/mL (≈ 173 µM).
In the case of `CCC(Nc1cnn(C)c1)c1ccc2c(c1)OCCO2` (configuration not stated), the MDR1-MDCK efflux ratio worked out at 0.835; the intrinsic clearance, human liver microsomes was determined as 11.4 mL/min/kg; the intrinsic clearance, rat liver microsomes is 332 mL/min/kg; the aqueous solubility was 37.7 µg/mL (≈ 138 µM).
As to `Cc1noc(C(C)C)c1C(=O)N1CC(C)OC(c2ccccc2)C1` (configuration not stated), the MDR1-MDCK efflux ratio was found to be 0.943; the fraction unbound, human plasma came to 0.152; the fraction unbound, rat plasma worked out at 0.129; the intrinsic clearance, human liver microsomes came out at 71.2 mL/min/kg. The same compound returned an intrinsic clearance, rat liver microsomes of 1610 mL/min/kg.
Turning to `C#CCOc1ccc(C(=O)NN2CCCC2=O)cc1`, the MDR1-MDCK efflux ratio turned out to be 1.32; the intrinsic clearance, human liver microsomes was at most 4.74 mL/min/kg; the intrinsic clearance, rat liver microsomes was at most 10.7 mL/min/kg; the aqueous solubility was 25.3 µg/mL (≈ 97.9 µM).
In the case of `COCc1ccc(SCC(=O)NC2CCCC2)cc1`, the MDR1-MDCK efflux ratio worked out at 0.714; the intrinsic clearance, human liver microsomes worked out at 33.3 mL/min/kg; the intrinsic clearance, rat liver microsomes came to 2550 mL/min/kg.
Consider `CCN(CC)C(=O)c1ccc(C2=CC3(CCNCC3)Oc3cccc(O)c32)cc1`, for which the MDR1-MDCK efflux ratio stood at 20.9; the intrinsic clearance, human liver microsomes came to 9 mL/min/kg; the intrinsic clearance, rat liver microsomes came out at 65.8 mL/min/kg.
Consider `NC(=O)c1cnc(NC2CC2)nc1CCNC(=O)C1(c2cccc(F)c2)CCOCC1`, for which the MDR1-MDCK efflux ratio worked out at 32.6; the intrinsic clearance, human liver microsomes was determined as 37.7 mL/min/kg; the intrinsic clearance, rat liver microsomes was 88.6 mL/min/kg; the aqueous solubility was 77.3 µg/mL (≈ 181 µM).
Turning to `COc1ccccc1-c1csc(-n2ncc(C#N)c2N)n1`, the aqueous solubility is 0.13 µg/mL (≈ 0.437 µM).
For the compound `CCc1cc(CNC(=O)Nc2ccc(N3CCSCC3)cc2)on1`, the MDR1-MDCK efflux ratio was found to be 19.2; the intrinsic clearance, human liver microsomes was 35.9 mL/min/kg; the intrinsic clearance, rat liver microsomes was 1430 mL/min/kg.
Consider `Cc1nc(CCNc2cnccc2C#N)cs1`, for which the intrinsic clearance, human liver microsomes turned out to be 55.6 mL/min/kg and the intrinsic clearance, rat liver microsomes turned out to be 391 mL/min/kg.
Regarding `CC#CC(=O)N[C@H]1CCCN(c2c(F)cc(C(N)=O)c3[nH]c(C)c(C)c23)C1`, the MDR1-MDCK efflux ratio is 7.25; the fraction unbound, human plasma amounted to 0.0146; the fraction unbound, rat plasma was found to be 0.00229; the intrinsic clearance, human liver microsomes was 25 mL/min/kg. The intrinsic clearance, rat liver microsomes is 238 mL/min/kg and the aqueous solubility was found to be 10.8 µg/mL (≈ 29.2 µM).
Turning to `O[C@@H]1CCCC[C@H]1N1CCC(c2ccccc2)CC1`, the MDR1-MDCK efflux ratio came out at 0.462; the intrinsic clearance, human liver microsomes was at most 4.74 mL/min/kg; the intrinsic clearance, rat liver microsomes was determined as 1390 mL/min/kg; the aqueous solubility worked out at 46.5 µg/mL (≈ 179 µM).
As to `Cc1cc(C)n2ncc(C(=O)NC3CCCCC3)c2n1`, the MDR1-MDCK efflux ratio was 0.702; the intrinsic clearance, human liver microsomes worked out at 55.8 mL/min/kg; the intrinsic clearance, rat liver microsomes worked out at 166 mL/min/kg; the aqueous solubility stood at 4.94 µg/mL (≈ 18.1 µM).
Turning to `O=C(Nc1nccs1)c1c2c(nc3ccccc13)CCC2`, the MDR1-MDCK efflux ratio was 1.44; the intrinsic clearance, human liver microsomes is 13.2 mL/min/kg; the intrinsic clearance, rat liver microsomes is 477 mL/min/kg; the aqueous solubility is 6.78 µg/mL (≈ 23 µM).
On to `Cn1nc(C2CC2)c2[nH]c(-c3cccc(CN4CCOCC4)c3)nc21`, for which the MDR1-MDCK efflux ratio worked out at 52; the intrinsic clearance, human liver microsomes was 18.8 mL/min/kg; the intrinsic clearance, rat liver microsomes worked out at 244 mL/min/kg; the aqueous solubility was 49.4 µg/mL (≈ 147 µM).
Take `C#CCN1CCN(C(=O)CCS(C)(=O)=O)CC1`: the intrinsic clearance, human liver microsomes was at most 4.74 mL/min/kg; the intrinsic clearance, rat liver microsomes was at most 10.7 mL/min/kg; the aqueous solubility worked out at 73.8 µg/mL (≈ 285 µM).
Take `O=C(Cc1cccc(I)c1)N1CC(CO)C1`: the MDR1-MDCK efflux ratio was determined as 1.59; the intrinsic clearance, human liver microsomes is at most 4.74 mL/min/kg; the intrinsic clearance, rat liver microsomes is at most 10.7 mL/min/kg; the aqueous solubility is 42.1 µg/mL (≈ 127 µM).
In the same order, the values of `Cn1c(=O)n(C2CCCC2)c(=O)c2c(F)cccc21` are 0.69, 23.3 mL/min/kg, 415 mL/min/kg and 26 µg/mL (≈ 99 µM).
In turn, `CC(C)N1CC[C@H](c2nnc(-c3cncn3C)o2)C1` registered an intrinsic clearance, human liver microsomes of at most 4.74 mL/min/kg; an intrinsic clearance, rat liver microsomes of 79.2 mL/min/kg; an aqueous solubility of 39.3 µg/mL (≈ 150 µM).
Take `CN1CCN(c2ccc3nc(-c4cc(C(C)(C)C)c(OCCCC(=O)NCCCN=[N+]=[N-])c(C(C)(C)C)c4)[nH]c3c2)CC1`: the intrinsic clearance, human liver microsomes came out at 177 mL/min/kg and the intrinsic clearance, rat liver microsomes is 212 mL/min/kg.
Take `FC(F)(F)c1nccc(NCCSc2nc3ccccc3o2)n1`: the MDR1-MDCK efflux ratio was 0.317; the intrinsic clearance, human liver microsomes was determined as 256 mL/min/kg; the intrinsic clearance, rat liver microsomes was found to be 747 mL/min/kg; the aqueous solubility was found to be 44.9 µg/mL (≈ 132 µM).
For the compound `CC(C)c1cc(C(C)C)c(CC(=O)NS(=O)(=O)Oc2c(C(C)C)cccc2C(C)C)c(C(C)C)c1`, the MDR1-MDCK efflux ratio came out at 4.45; the intrinsic clearance, human liver microsomes was determined as 45.9 mL/min/kg; the intrinsic clearance, rat liver microsomes came to 170 mL/min/kg.
Regarding `N#CN1CCC[C@H](n2nc(-c3ccc(Oc4ccc(F)cc4F)cc3)c(C(N)=O)c2N)C1`, the MDR1-MDCK efflux ratio was found to be 33; the intrinsic clearance, human liver microsomes is at most 4.74 mL/min/kg; the intrinsic clearance, rat liver microsomes turned out to be 68.2 mL/min/kg; the aqueous solubility amounted to 35.9 µg/mL (≈ 81.9 µM).
In the case of `CNC(=O)c1cc(-c2ccccc2)no1`, the aqueous solubility came to 37 µg/mL (≈ 183 µM).
`CC(C)c1nnc(-c2ccc(-c3ccccc3)nc2)n1-c1cccc2nonc12`: the MDR1-MDCK efflux ratio is 4.09; the intrinsic clearance, human liver microsomes turned out to be 8.27 mL/min/kg; the intrinsic clearance, rat liver microsomes amounted to 518 mL/min/kg; the aqueous solubility came to 53.4 µg/mL (≈ 140 µM).
In the same order, the values of `Cc1ccc(S(=O)(=O)N2CCC[C@H](C(=O)NC3CCOCC3)C2)cc1` are 20.9, at most 4.74 mL/min/kg, 581 mL/min/kg and 54.1 µg/mL (≈ 148 µM).
On to `CC(=O)N1CCC(Cn2ccnc2-c2cc3ccccc3s2)CC1`, for which the MDR1-MDCK efflux ratio stood at 14; the intrinsic clearance, human liver microsomes stood at 46.5 mL/min/kg; the intrinsic clearance, rat liver microsomes was found to be 357 mL/min/kg; the aqueous solubility is 35.2 µg/mL (≈ 104 µM).
In the same order, the values of `O=C(O)c1cnc(/C=C/c2csc(-c3ccsc3)n2)s1` are 0.832, 7.87 mL/min/kg, 59.3 mL/min/kg and 77.5 µg/mL (≈ 242 µM).
In the same order, the values of `Cc1nc(Cn2ncc3ccccc3c2=O)cs1` are 0.681, at most 4.74 mL/min/kg, 103 mL/min/kg and 45.1 µg/mL (≈ 175 µM).
